In patent US20120316203A1, “Compositions and Methods for Inhibition of Cancers” (THE OHIO STATE UNIVERSITY RESEARCH FOUNDATION, priority 2009, published 2012):

Experiments:
A2780 and SKOV3 cells = test: Cell-invasion (Boyden chamber) assay; assay type: cell-based, human; details: 10 μM
Description: Cell-migration assay was performed by wound-healing method. Cells were plated at equal density and grown to 90% confluence. Wounds were created using a sterile pipette tip. Cells were then rinsed with medium and replaced with the fresh medium and incubated with HO-3867 (10 μM). Areas of wound were marked and photographed at various time-points with a phase-contrast microscope. Cell-invasive assay was measured by an in vitro Boyden chamber assay. Briefly, 1×10^5 cells in 0.5 ml of serum-free RPMI 1640 medium were added to the wells of 8-μm-diameter pore membrane Boyden chambers, either coated with (BD Biosciences, Franklin Lake, N.J.) or without (Corning, Corning, N.Y.) Matrigel. Cells were allowed to invade for 24 hours. Cells that had not penetrated the filters were removed by scrubbing with cotton swabs. Chambers were fixed in 100% methanol for 2 min, stained in 0.5% crystal violet for 2 min, rinsed in PBS and examined using a bright-field microscope. Values for invasion were obtained by counting five fields per membrane and represented as the average of three independent experiments performed over multiple days.

[1] = test system: p53, p21, p27, cdk2, and cyclin A in A2780 cells; test: Immunoblot of cell cycle regulatory proteins; assay type: cell-based, human; details: Western blot
Description: Cells in RPMI 1640 were treated with DMSO (control) or HO-3867 (10 μmol/L) for 24 hours. Equal volumes of DMSO (0.1% v/v) were present in each treatment. Following treatment, the cell lysates were prepared in non-denaturing lysis buffer containing 10 mmol/L Tris-HCl (pH 7.4), 150 mmol/L NaCl, 1% Triton X-100, 1 mmol/L EDTA, 1 mmol/L EGTA, 0.3 mmol/L phenylmethyl-sulfonyl fluoride, 0.2 mmol/L sodium orthovanadate, 0.5% NP40, 1 μg/mL aprotinin, and 1 μg/mL leupetin. The lysates were centrifuged at 10,000×g for 20 minutes at 4° C. and the supernatant was separated. The protein concentration in the lysates was determined using a Pierce detergent-compatible protein assay kit. For Western blotting, 25 to 50 μg of protein lysate per sample were denatured in 2×SDS-PAGE sample buffer and subjected to SDS-PAGE on a 10% tris-glycine gel. The separated proteins were transferred to a polyvinylidene fluoride membrane and were blocked with 5% nonfat milk powder (w/v) in TBST (10 mmol/L Tris, 10 mmol/L NaCl, 0.1% Tween 20) for 1 hour at room temperature or overnight at 4° C. […] The bound antibodies were detected with horseradish peroxidase-labeled sheep anti-mouse IgG or horseradish peroxidase-labeled donkey anti-rabbit IgG using an enhanced chemiluminescence detection system (ECL Advanced kit). Protein expressions were determined using the Image Gauge v. […]

A2780 cells = test: Cell proliferation by clonogenic assay; assay type: cell-based, human; details: 24 hours treatment, 7 days growth
Description: Cell survival was assessed by clonogenic assay. Cells at […] confluence were trypsinized, rinsed, seeded onto 60-mm dishes (5×10^4 cells per dish), grown for 24 hours at 37° C., and treated afterward with H-4073 or HO-3867 for 24 hours. Nontreated cells served as controls. After treatment, the cells were washed twice with PBS, trypsinized, counted, and plated in 60-mm dishes in triplicate and incubated for an additional 7 days. The colonies were then stained with crystal violet (in ethyl alcohol) and counted using an automated colony counter (ColCount, Oxford Optronix). Each experiment was repeated at least five times.

[2] = test system: A2780, A2780R, MCF-7, HCT-116, PC-3, HepG2, A549, and SCC4 human cancer cell lines; test: Cytotoxicity of DAPs to cancer cells (MTT); assay type: cell-based; details: 10 μM, 24 h
Description: Cell viability was determined by a colorimetric assay using MTT. In the mitochondria of living cells, yellow MTT undergoes a reductive conversion to formazan, giving a purple color. Cells, grown to […] confluence in 75-mm flasks, were trypsinized, counted, seeded in 96-well plates with an average population of 7000 cells/well, incubated overnight, and then treated with the DAPs (H-4073, HO-3867, H4318, or HO-4200; […]) for 24 h. All experiments were done using eight replicates and repeated at least three times. Cell viability was expressed as the percentage of MIT viability of untreated cells.

[3] = test system: A2780R, PA-1, SKOV3, OV4, and OVCAR3 human ovarian cancer cell lines; test: Cell viability by MTT assay, other ovarian cancer cell lines; assay type: cell-based; details: 10 μmol/L; 24 h
Description: Cell viability was determined by a colorimetric assay using MTT. In the mitochondria of living cells, yellow MTT undergoes a reductive conversion to formazan, producing a purple color. Cells, grown to […] confluence in 75-mm flasks, were trypsinized, counted, seeded in 96-well plates with an average population of 7,000 cells per well, incubated overnight, and then treated with curcumin, H-4073, or HO-3867 for 24 hours. All experiments were done using eight replicates and, repeated at least thrice.

[4] = test system: caspase-8, caspase-7, cleaved caspase-3, PARP, Fas/CD95, Fas-L, TNF-R1 in A2780 cells; test: Immunoblot of apoptotic marker proteins and death receptors; assay type: cell-based, human
Description: Cells in RPMI 1640 were treated with DMSO (control) or HO-3867 (10 μmol/L) for 24 hours. Equal volumes of DMSO (0.1% v/v) were present in each treatment. Following treatment, the cell lysates were prepared in non-denaturing lysis buffer containing 10 mmol/L Tris-HCl (pH 7.4), 150 mmol/L NaCl, 1% Triton X-100, 1 mmol/L EDTA, 1 mmol/L EGTA, 0.3 mmol/L phenylmethyl-sulfonyl fluoride, 0.2 mmol/L sodium orthovanadate, 0.5% NP40, 1 μg/mL aprotinin, and 1 μg/mL leupetin. The lysates were centrifuged at 10,000×g for 20 minutes at 4° C. and the supernatant was separated. The protein concentration in the lysates was determined using a Pierce detergent-compatible protein assay kit. For Western blotting, 25 to 50 μg of protein lysate per sample were denatured in 2×SDS-PAGE sample buffer and subjected to SDS-PAGE on a 10% tris-glycine gel. The separated proteins were transferred to a polyvinylidene fluoride membrane and were blocked with 5% nonfat milk powder (w/v) in TBST (10 mmol/L Tris, 10 mmol/L NaCl, 0.1% Tween 20) for 1 hour at room temperature or overnight at 4° C. The membranes were then incubated with the primary antibodies. The bound antibodies were detected with horseradish peroxidase-labeled sheep anti-mouse IgG or horseradish peroxidase-labeled donkey anti-rabbit IgG using an enhanced chemiluminescence detection system (ECL Advanced kit). Protein expressions were determined using the Image Gauge v. 3.45 software.

[5] = Superoxide radical-scavenging by EPR (xanthine/xanthine oxidase, DEPMPO competition); details: 100 μM compound versus 1 mM DEPMPO
Description: Electron paramagnetic resonance (EPR) spectroscopy was used to quantitatively determine the relative superoxide-scavenging ability of the DAPs in comparison with DEPMPO, a known superoxide scavenger. Superoxide radicals were generated using an aerated solution of PBS (pH 7.4) containing xanthine (0.2 mM), xanthine oxidase (0.02 U/ml), and diethylenetriamine pentaacetic acid (0.1 mM). The superoxide radicals (O2^−) generated by the xanhine-xanthine oxidase reaction were reacted with DEPMPO (1 mM) to form a paramagnetic adduct (DEPMPO-OOH), which was detected using X-band (9.8 GHz) EPR spectroscopy. In separate experimental groups, […], or SOD (500 U/ml) was added to the reaction mixture. […] The generation of the DEPMPO-OOH adduct was measured at 10 min after initiation of the reaction.
Both N-hydroxypyrroline and nitroxide have antioxidant properties including SOD- and catalase-mimetic activity. Therefore, we determined the superoxide radical-scavenging ability of DAPs using a competitive reaction in the presence of DEPMPO. Superoxide radicals were generated using an aerobic solution of xanthine and xanthine oxidase and detected as DEPMPO-OOH adduct by EPR spectroscopy. The DAP compounds (100 μM) were used to compete with 1 mM DEPMPO for the superoxide ions. SOD (4.2 μM) was used as a positive control.

CC1(C)C=C(CN2C/C(=C\c3ccc(F)cc3)C(=O)/C(=C/c3ccc(F)cc3)C2)C(C)(C)N1O [HO-3867, 1-[(1-oxyl-2,2,5,5-tetramethyl-2,5-dihydro-1H-pyrrol-3-yl)methyl]-(3E,5E)-3,5-bis(4-fluorobenzylidene)piperidin-4-one]
cell invasion (A2780 and SKOV3 cells; 24 hours, versus untreated cells): significant inhibition
VEGF-induced invasion (A2780 and SKOV3 cells; 24-h incubation, versus VEGF group): significantly inhibited
cdk2 and cyclin-A levels [1]: significantly decreased
levels of p53 and p21 [1]: significantly upregulated
number of colonies (colony-forming ability) (A2780 cells): dose-dependent reduction in the number of colonies
cell viability of human cancer cell lines [2]: substantial loss of cell viability
cytotoxicity in other human ovarian cancer cell lines [3]: equally and significantly toxic
level of activated caspases (caspase-8, caspase-7, cleaved caspase-3) and PARP ([4]; 24 hours, versus nontreated cells): significant increase
Fas-L level ([4]; data not shown): no significant change
expression level of TNF-R1 ([4]; data not shown): unchanged
Fas/CD95 expression ([4]; versus nontreated group): clear increase
diminution of the DEPMPO-OOH concentration [5]: −50%
